# Source: patent US4507287A, “Preparation and method for the treatment of acne” (priority 1983, dated 1985)
# Where two headings read alike, the source gives them in different places.
# Experiments:
# acne [1] = test: topical treatment of acne with antibiotics mixed with DMSO; assay type: in vivo; settings: antibiotic mixed with DMSO
# Text: These antibiotics including, amikacin, cefamandole, cefoxitin, erythromycin, tetracycline, tobramycin, vancomycin, lincomycin, and carbenicillin.
# acne [2] = settings: oral, long-term; Plewig et al.; cited from earlier work
# [3] = solubility of ara-A in DMSO/water versus water; assay type: physicochemical; settings: DMSO in the solvent carrier medium
# DNA polymerase = settings: suppresses viral replication; cited from earlier work
# [4] = cited from earlier work
# DNA viruses = settings: in vitro and in vivo (animal models or man), cited from earlier work
# [5] = recovery of unchanged ara-A from the DMSO and water solution; assay type: physicochemical; settings: under the conditions of preparation
# Method: There are no special procedures involved in preparing of the preparation for the treatment of acne of the present invention. The demineralized water and DMSO can be mixed first, and the ara-A (and benzocaine if used) is then dissolved in the DMSO and water solution. The ara-A can be added to the pure DMSO, and water can be added last. When water and DMSO are mixed, the solution becomes warm because there is a positive heat of solution. […] Ara-A can be recovered from the DMSO and water solution virtually 100% as unchanged ara-A.
# rats = test: acute oral toxicity of ara-A in rats; assay type: in vivo; settings: extrapolated from LD50 in rats and mice
# Method: Regarding toxicity or other side effects on the patient of the proposed preparation, extensive pharmacologic and toxicity studies on ara-A have been carried out in animals and in man. […] This dose level indicates a low order of toxicity to a single parenteral dose. The acute oral LD50 in both rats and mice is greater than […]. This amount would be equivalent to more than […] (one and two thirds pound) in an average 150 pound person. […] In the form used in the present invention and with treatment by topical application, it is highly unlikely that any toxic side effects of ara-A would be observed.
# [6] = intravenous form; cited from earlier work
# [7] = in vivo
# Text: Also one to two percent high viscosity carboxymethylcellulose, Carbopol (manufactured by Firestone Company, Akron, Ohio), or other suitable gelling agent might be added to the mixture to provide a gel which may be preferred for topical application.
# acne lesions = test: topical treatment of acne with ara-A and DMSO; assay type: in vivo; settings: benzocaine added to ara-A/DMSO medication
# Text: Treatment of acne with the disclosed preparation should begin as soon as the first sign of the lesion (pimple) is apparent. […] The medication should be applied every two to four hours for the first two days during waking hours.
# normal skin [8] = settings: in vivo
# Method: This rash, however, usually disappears shortly thereafter with no ill effects. Annals of the New York Academy of Sciences, Vol. […], (1967). S. W. Jacob, E. E. Rosenbaum, and D. C. Wood, eds., Vol. 1, Dimethyl Sulfoxide, 99 (1971), and Vol. 243, Annals of the New York Academy of Sciences, (1975). In the present invention DMSO is diluted to 70% with demineralized water before ara-A is added.
# normal skin [9] = settings: applied to skin; cited from earlier work
# [10] = animals and humans; cited from earlier work
smiles,measurement,setting,value
CC1(C)S[C@@H]2[C@H](NC(=O)C(C(=O)O)c3ccccc3)C(=O)N2[C@H]1C(=O)O (some centres unmarked) [carbenicillin],effectiveness in topical treatment of acne,acne [1],effective in the topical treatment of acne
CN[C@H](CC(C)C)C(=O)N[C@H]1C(=O)N[C@@H](CC(N)=O)C(=O)N[C@H]2C(=O)N[C@H]3C(=O)N[C@H](C(=O)N[C@H](C(=O)O)c4cc(O)cc(O)c4-c4cc3ccc4O)[C@H](O)c3ccc(c(Cl)c3)Oc3cc2cc(c3O[C@@H]2O[C@H](CO)[C@@H](O)[C@H](O)[C@H]2O[C@H]2C[C@](C)(N)[C@H](O)[C@H](C)O2)Oc2ccc(cc2Cl)[C@H]1O [vancomycin],effectiveness in topical treatment of acne,acne [1],effective in the topical treatment of acne
CCC[C@@H]1C[C@@H](C(=O)N[C@@H]([C@H]2O[C@H](SC)[C@H](O)[C@@H](O)[C@H]2O)[C@@H](C)O)N(C)C1 [lincomycin],help in the management of acne,acne [2],help in the management of acne
same,effectiveness in topical treatment of acne,acne [1],effective in the topical treatment of acne
"Nc1ncnc2c1ncn2[C@@H]1O[C@H](CO)[C@@H](O)[C@@H]1O [ara-A, adenine-9- -D-arabinofuranoside]",amount of ara-A dissolved versus DMSO concentration,[3],"The higher the concentration of DMSO in the solvent carrier medium, the greater is the amount of ara-A that can be dissolved"
same,inhibition of DNA polymerase,DNA polymerase,inhibits the enzyme DNA polymerase
same,toxicity through topical application,[4],not possible to demonstrate toxicity
same,redness and irritation after topical application,[4]; in some cases,redness and slight irritation has been noted
same,antiviral activity,DNA viruses,active against a broad spectrum of DNA viruses
same,antiviral activity,DNA viruses; listed as Ara-A,in some cases to be effective against Herpes simplex virus
same,chemical reaction between ara-A and DMSO,[5],no chemical reaction
same,amount equivalent to the acute oral LD50 in an average 150 pound person,rats,more than 750 grams
same,side effects of massive acute overdosage,[6],without any serious side effects
Cn1nnnc1SCC1=C(C(=O)O)N2C(=O)[C@@H](NC(=O)[C@H](O)c3ccccc3)[C@H]2SC1 [cefamandole],effectiveness in topical treatment of acne,acne [1],effective in the topical treatment of acne
CN(C)C1C(=O)C(C(N)=O)=C(O)C2(O)C(=O)C3=C(O)c4c(O)cccc4C(C)(O)C3CC12 (centres unmarked) [tetracycline],help in the management of acne,acne [2],help in the management of acne
same,effectiveness in topical treatment of acne,acne [1],effective in the topical treatment of acne
CC[C@H]1OC(=O)[C@H](C)[C@@H](O[C@H]2C[C@@](C)(OC)[C@@H](O)[C@H](C)O2)[C@H](C)[C@@H](O[C@@H]2O[C@H](C)C[C@H](N(C)C)[C@H]2O)[C@](C)(O)C[C@@H](C)C(=O)[C@H](C)[C@@H](O)[C@]1(C)O [erythromycin],help in the management of acne,acne [2],help in the management of acne
same,effectiveness in topical treatment of acne,acne [1],effective in the topical treatment of acne
NCC[C@H](O)C(=O)N[C@@H]1C[C@H](N)[C@@H](O[C@H]2O[C@H](CN)[C@@H](O)[C@H](O)[C@H]2O)[C@H](O)[C@H]1O[C@H]1O[C@H](CO)[C@@H](O)[C@H](N)[C@H]1O [amikacin],effectiveness in topical treatment of acne,acne [1],effective in the topical treatment of acne
NC[C@H]1O[C@H](O[C@H]2[C@H](O)[C@@H](O[C@H]3O[C@H](CO)[C@@H](O)[C@H](N)[C@H]3O)[C@H](N)C[C@@H]2N)[C@H](N)C[C@@H]1O [tobramycin],effectiveness in topical treatment of acne,acne [1],effective in the topical treatment of acne
CO[C@@]1(NC(=O)Cc2cccs2)C(=O)N2C(C(=O)O)=C(COC(N)=O)CS[C@@H]21 [cefoxitin],effectiveness in topical treatment of acne,acne [1],effective in the topical treatment of acne
CCOC(=O)c1ccc(N)cc1 [benzocaine],deleterious effect on the patient,[7],Nor does the benzocaine appear to have any deleterious effect on the patient
same,influence of benzocaine on effectiveness of the medication,acne lesions,does not impair the effectiveness of the medication
"C[S+](C)[O-] [DMSO, dimethyl sulfoxide]",skin irritation at 70% DMSO,normal skin [8],usually non-irritating to normal skin
same,skin reaction to undiluted DMSO,normal skin [9],sometimes may cause an itching or burning sensation with redness or rash
same,toxicity,[10],essentially nontoxic
